Experimental data as given in patent US3955959A, “Herbicide for use in transplanted rice” (priority 1974, dated 1976).

Test system: transplanted rice seedlings
Test: Example 6 rice seedling injury
Type: in vivo
Protocol: In this example, the efficacy of Herbicide A is presented for a variety of weeds in the presence of ordinary and infant transplant rice. In this example, tests were conducted at the said JAAPR Lab at different times of the year. "Early season" transplants were made in April and "Normal season" transplants were made in July. The size of the transplants at the respective seasons were: Season Seedling Type Plant Height (cm) Leaf Stage ______________________________________ Early Ordinary 16.5 4.5 Early Infant 9.1 2.4 Normal Ordinary 41.7 5.3 Normal Infant 14.7 1.9 ______________________________________
Duplicate treatments were used. At the time of application of the herbicide, the status of the grass (EC) was as follows: […]

With `CCCCOCN(C(=O)CCl)c1c(C)cccc1C(C)(C)C` [Herbicide A, n-(butoxymethyl)-6'-tert-butyl-2-chloro-o-acetotoluidide] the “Rice Seedling Injury (%)” value (Early season, ordinary, 1.0 kg/ha, 3 DAT) was 5%, the “Rice Seedling Injury (%)” value (Early season, ordinary, 1.0 kg/ha, 12 DAT) was 0% and the “Rice Seedling Injury (%)” value (Early season, ordinary, 1.0 kg/ha, -2 DAT) was 10%. For the same compound, the “Rice Seedling Injury (%)” value (Early season, ordinary, .5 kg/ha, 3 DAT) was 0%, the “Rice Seedling Injury (%)” value (Early season, ordinary, .5 kg/ha, 12 DAT) was 0% and the “Rice Seedling Injury (%)” value (Early season, ordinary, .5 kg/ha, -2 DAT) was 10%. The “Rice Seedling Injury (%)” value (Normal season, infant, 1.0 kg/ha, 3 DAT) was 20%, the “Rice Seedling Injury (%)” value (Normal season, infant, 1.0 kg/ha, 7 DAT) was 10% and the “Rice Seedling Injury (%)” value (Normal season, infant, 1.0 kg/ha, -2 DAT) was 40%. The “Rice Seedling Injury (%)” value (Normal season, infant, .5 kg/ha, 3 DAT) was 15%, the “Rice Seedling Injury (%)” value (Normal season, infant, .5 kg/ha, 7 DAT) was 10% and the “Rice Seedling Injury (%)” value (Normal season, infant, .5 kg/ha, -2 DAT) was 20%. The “Rice Seedling Injury (%)” value (Normal season, ordinary, 1.0 kg/ha, 3 DAT) was 15%, the “Rice Seedling Injury (%)” value (Normal season, ordinary, 1.0 kg/ha, 7 DAT) was 10% and the “Rice Seedling Injury (%)” value (Normal season, ordinary, 1.0 kg/ha, -2 DAT) was 30%. The “Rice Seedling Injury (%)” value (Normal season, ordinary, .5 kg/ha, 3 DAT) was 15%, the “Rice Seedling Injury (%)” value (Normal season, ordinary, .5 kg/ha, 7 DAT) was 5% and the “Rice Seedling Injury (%)” value (Normal season, ordinary, .5 kg/ha, -2 DAT) was 25%. For the same compound, the “rice toxicity, infant vs ordinary seedlings” value (infant vs ordinary) was “No difference” and the “rice toxicity, preemergence vs later treatments” value (preemergence treatments vs later) was “somewhat more toxic to rice”.
